Laboratory results taken from PubChem BioAssay AID493102 (Broad Institute, 2011).

tested on: SK-MEL-5 TRPM1-promoter luciferase reporter, 24 h; assay: reducers of TRPM1 reporter luminescence, concentration series – cell-based, SK-MEL-5, cherry-picked, set 4, MITF inhibitor project, dose response (AID 493102);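 also: actives lower the luciferase signal so the potency reflects inhibition of reporter expression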

| SMILES | AC50 [µM] |
| --- | --- |
| COc1cc(CNC2CCCC2)cc(Cl)c1OCc1ccccc1Cl | 17.7 |
| NCCN1C(=O)S/C(=C\c2ccc3c(c2)OCO3)C1=O | 22.3 |
| CCN1CCc2c(sc(NC(=O)c3ccc(S(=O)(=O)N4CCCC4)cc3)c2C(=O)NC)C1 | 9.14 |
| CC(C)n1c(O)c(C2c3cc(Cl)ccc3Oc3[nH]c(=O)n(C(C)C)c(=O)c32)c(=O)[nH]c1=O (stereo not given) | 5.39 |
| Cc1ccc(NC(=O)/C=C/c2ccc([N+](=O)[O-])s2)c(C)c1 | 4.64 |
| C=CC[n+]1c(-c2ccc(C)cc2)csc1Nc1ccc(NC(C)=O)cc1 | 1.57 |
| COc1ccc(N(Cc2cc(=O)[nH]c3ccccc23)C(=O)CCl)cc1 | 10.9 |
| C=C1C(=O)C=C[C@]2(C)C[C@@H]3OC(=O)[C@](C)(O)[C@H]3C[C@@H]12 | 10.3 |
| COc1cc(OC)cc(C(=O)N[C@H](C(=O)Nc2nc3ccccc3[nH]2)C(C)C)c1 | 2.44 |
| CCN(CC)c1ccc(/C=N/NC(=O)c2cccc(S(=O)(=O)N3CCOCC3)c2)c(O)c1 | 1.52 |
| O=C(O)c1cccc(N/N=C/c2ccc(OC(F)(F)F)cc2)c1 | 5.95 |
| C=CCn1c(C)cc(C2=NNC(=NCC)SC2)c1C | 0.056 |
| O=C(C#Cc1ccccc1)c1cccc([N+](=O)[O-])c1 | 3.62 |
| CCOc1ccc(-n2c(-c3ccc(Br)cc3)c[n+]3c2CCCCC3)cc1 | 3.87 |
| Cc1cc(C)cc(OCC(=O)N/N=C/c2ccc([N+](=O)[O-])o2)c1 | 7.12 |
| COc1cccc(C(=O)N/N=C(/c2ccccc2)c2ccccn2)c1 | 5.8 |
| COc1ccc(Oc2cc(NC(=O)c3nn(C)cc3[N+](=O)[O-])cc([N+](=O)[O-])c2)cc1 | 8.94 |
| CN(c1ccc2nc3ccccc3c(=O)n2n1)C1CCCCC1 | 1.29 |
| N/C(=N\OC(=O)c1ccccc1)c1ccccn1 | 11.9 |
| Cc1cc(C)cc(N2C(=O)NC(=O)/C(=C\C=C\c3ccco3)C2=O)c1 | 4.88 |
| O=C(NC1=NCCS1)C1COc2ccccc2O1 (stereo not given) | 1.7 |
| COc1cc2c(cc1OC)C(SC)=NC1(CCCC1)C2 | 9.44 |

| SMILES | AC50 [µM] |
| --- | --- |
| CCOC(=O)N1C(=O)[C@](CC)(c2ccccc2)N1C(=O)OCC | 10 |
| CC(C)[C@H](NC(=O)OC(C)(C)C)c1nnc(S(=O)(=O)Cc2c(F)cccc2Cl)o1 | 11.6 |
| NC(=O)C1CCN(C2=C(NS(=O)(=O)c3ccc(Br)cc3)C(=O)c3ccccc3C2=O)CC1 | 11.9 |
| Cc1[nH]n(-c2ccccc2)c(=O)c1N=Nc1cccc(C(=O)O)c1 | 8.07 |
| COc1ccc(-c2nn(-c3ccccc3)cc2/C=N/N=C(N)N)cc1OC | 14.6 |
| Cc1cc(NC(=O)c2ccc([N+](=O)[O-])o2)ccc1NC(=O)c1ccco1 | 7.8 |
| Cc1ccc(NC(=O)c2cc3ccccc3oc2=O)cc1S(=O)(=O)N(C)C | 0.03 |
| Nc1ccc(-c2cc3ccccc3c(=O)o2)cc1 | 0.293 |
| CC1(C)CC(NC(=O)c2ccc(Cl)c(S(=O)(=O)N(Cc3ccccc3)c3ccccc3)c2)CC(C)(C)N1 | 10.3 |
| FC(F)(F)c1cc(CCN2CCNC[C@@H]2Cc2ccccc2)cc(C(F)(F)F)c1 | 12.3 |
| CC(=O)NC1=C(N(C)C2CCS(=O)(=O)C2)C(=O)c2ccccc2C1=O (stereo not given) | 21.2 |
| N/C(=N\OC(=O)c1ccccc1Cl)c1ccccn1 | 8.87 |
| N=c1n(CC(=O)c2ccc(Br)s2)c2ccccc2n1Cc1ccccc1 | 7.34 |
| O=c1c2ccccc2nc(/C=C/c2ccc([N+](=O)[O-])o2)n1-c1ccc(O)cc1 | 4.45 |
| CN1CCN(c2ccccc2NC(=O)c2ccc([N+](=O)[O-])o2)CC1 | 4.95 |
| CCN1CCN(CCCNC(=O)c2ccc3c(c2)NC(=O)/C(=C\c2cccc(C)c2)S3)CC1 | 9.93 |
| CC1(C)Cc2ccccc2C2=NNC(=O)C2=N1 | 3.62 |
| O=C(COc1ccc(Cl)cc1Cl)Nc1ccccn1 | 2.19 |
| O=C(Nc1ccc2nc3n(c(=O)c2c1)CCCC3)c1cc([N+](=O)[O-])ccc1F | 11.5 |
| COc1ccc(CNCCC(c2ccc(F)cc2)c2ccc(OC)cc2)cc1 (stereo not given) | 9.89 |
| Cc1cc(C)cc(NS(=O)(=O)c2ccc3c(c2)c(=O)n(C)c(=O)n3C)c1 | 4.67 |
| O=[N+]([O-])c1ccc(S(=O)(=O)CC(CN2CCCCC2)N2CCCCC2)cc1 (stereo not given) | 4.88 |

| SMILES | AC50 [µM] |
| --- | --- |
| OCCNc1c2ccccc2nc2ccccc12 | 7.28 |
| COc1ccc(Br)cc1/C=C/C(=O)c1ccc(NC(C)=O)cc1 | 4.63 |
| CCc1ccc(N2C(=O)NC(=O)/C(=C\C=C\c3ccco3)C2=O)cc1 | 7.53 |
| Cc1ccccc1C(=O)N/N=C/c1ccc([N+](=O)[O-])s1 | 1.88 |
| COc1cc2c(cc1OC)C(c1ccccc1)N(C(=O)CCl)CC2 (stereo not given) | 5.36 |
| O=C(CNC(=O)c1cccc(F)c1)N/N=C/c1ccc([N+](=O)[O-])s1 | 7.45 |
| CCN1c2ccccc2NC2N=C(OC)C(c3ccccc3)C21 (stereo not given) | 7.52 |
| CCN(CC)S(=O)(=O)c1cccc(C(=O)N/N=C(\C)c2ccc(O)cc2O)c1 | 3.74 |
| CS(=O)(=O)c1nc(-c2ccc(F)cc2)cc(C(F)(F)F)n1 | 7.2 |
| O=C(CCCc1ccccc1)Nc1cccc(C(=O)O)c1 | 4.42 |
| Cc1cccc(N2C(=O)NC(=O)/C(=C\c3cccn3-c3ccc(Cl)cc3)C2=O)c1 | 8.91 |
| Cc1ccc(Oc2c(C(N)=O)cc([N+](=O)[O-])cc2[N+](=O)[O-])cc1 | 3.68 |
| O=C(CCl)N(Cc1cc(=O)[nH]c2ccccc12)c1ccccc1 | 5.42 |
| CCOC(=O)N1CCN(C(=O)c2ccc(Cn3c(=S)[nH]c4ccc(Br)cc4c3=O)cc2)CC1 | 3.52 |
| CN(C(=O)/C=C/c1ccc([N+](=O)[O-])s1)c1ccccc1 | 9.11 |
| Cc1cc(C(C)(C)C)cc(C)c1Cn1c2[n+](c3ccc(C(F)(F)F)cc31)CCCCC2 | 7.55 |
| Cc1cccc(NC2=C(NC(=O)c3ccccc3)C(=O)c3ccccc3C2=O)c1 | 9.99 |
| O=S(=O)(c1ccc(Cl)cc1)N1CCN(Cc2ccc(O)c3ncccc23)CC1 | 4.37 |
| Cc1cc(-n2c(SCC(=O)NCCC3=CCCCC3)nc3n[nH]c(C)c3c2=N)ccc1Cl | 17.1 |
| CC(C)N=C(NS(=O)(=O)c1ccccc1)C(Cl)(Cl)Cl | 6.76 |
| CC1(C(=O)N/N=C/c2ccc([N+](=O)[O-])o2)CC1(Br)Br (stereo not given) | 10.3 |
| CC(C)(C)c1ccc(Cn2c(=N)n(CC(O)c3ccco3)c3ccccc32)cc1 (stereo not given) | 11.8 |

| SMILES | AC50 [µM] |
| --- | --- |
| COc1ccc(C(CCNC(C)c2ccccc2)c2ccc(F)cc2)cc1 (stereo not given) | 16.6 |
| O=C(Nc1ccc(OC(F)(F)F)cc1)c1[nH]ncc1[N+](=O)[O-] | 0.601 |
| Cc1cc(C(=O)COc2cccnc2[N+](=O)[O-])c(C)n1-c1ccccc1 | 1.48 |
| Cn1nnnc1Sc1ncnc2scc(-c3ccc(F)cc3)c12 | 8.1 |
| Cc1cc(C)nc(S/C=C/C(=O)c2ccccc2F)n1 | 5.38 |
| O=C(Cn1ncc(Cl)c(Cl)c1=O)NCC1CCCCC1 | 7.39 |
| O=C(N/N=C\c1ccc([N+](=O)[O-])o1)C1COc2ccccc2O1 (stereo not given) | 7.21 |
| Cc1ccc(C)c(C(=O)Cn2ncc(Cl)c(Cl)c2=O)c1 | 14.5 |
| COc1ccccc1NS(=O)(=O)c1cc(NC(=O)c2ccc(Cl)nc2)ccc1Cl | 11.3 |
| CC1=NOC(=O)/C1=C\c1ccc(-c2cccc(Cl)c2)o1 | 5.36 |
| O=C(Nc1ccc(-c2nc3ncccc3o2)cc1)c1ccc([N+](=O)[O-])o1 | 3.63 |
| CC(=O)OCCNc1cc(Sc2nc3ccccc3[nH]2)c2nonc2c1[N+](=O)[O-] | 11.5 |
| CC(C)Oc1ccc(C(CCNCc2ccc(O)cc2)c2ccccc2)cc1 (stereo not given) | 12.8 |
| COc1ccc(/C=C2\SC(=S)N(CCCC(=O)NNC(=O)c3ccccc3O)C2=O)cc1 | 1.38 |
| CCOC(=O)CSC1=NC(=O)/C(=C\c2ccc(OC(C)=O)cc2)S1 | 5.13 |
| COc1cc([N+](=O)[O-])cc(/C=N/NC(=O)c2ccc(NC(=O)c3ccc(C)cc3)cc2)c1O | 1.55 |
| Cc1ccc(C2=NN(C(=O)CCl)C(c3cccs3)C2)o1 (stereo not given) | 6.1 |
| CN(C)c1nc(-c2ccccn2)nnc1-c1ccccc1 | 6.17 |
| CC(C)(C)c1ccc(C(=O)Nc2sc3c(c2C(=O)O)CCC3)cc1 | 2.09 |
| COc1ccc(O)c(/C=N/NC(=O)c2ccc(CSc3nc(C)cc(C)n3)cc2)c1 | 9.31 |
| O=C(Nc1ccccc1N1CCN(C(=O)c2ccccc2)CC1)c1ccc([N+](=O)[O-])o1 | 11.4 |
| O=C(NC(=S)NCc1ccccc1)c1ccccc1 | 22.1 |

| SMILES | AC50 [µM] |
| --- | --- |
| CCCCn1c(=O)[nH]c(=O)c2c1nc(Cn1ncc(Cl)c(Cl)c1=O)n2CCC | 8.12 |
| COc1cccc2sc(N(CCCN(C)C)C(=O)C(c3ccccc3)c3ccccc3)nc12 | 15.1 |
| CCN1CCN(C2=C(NS(=O)(=O)c3ccc(Br)cc3)C(=O)c3ccccc3C2=O)CC1 | 5.71 |
| O=[N+]([O-])c1ccc(-n2nnnc2-c2ccccc2)c([N+](=O)[O-])c1 | 7.37 |
| CC(=O)Nc1ccc(Nc2c3ccccc3nc3ccccc23)cc1 | 4.9 |
| O=C(N/N=C/c1ccc([N+](=O)[O-])o1)c1sc2ccccc2c1Cl | 4.61 |
| CCOc1ccc(-n2c(C)cc(C(=O)CCl)c2C)cc1 | 4.59 |
| CC1CCC/C=C/C(=O)c2c(O)cc(O)cc2CC(=O)O1 (stereo not given) | 5.79 |
| O=C(N/N=C/c1ccc(F)cc1)c1c(O)c2ccccc2[nH]c1=O | 9.64 |
| Cc1ccc(-c2nnc(SCC(=O)Nc3ccccc3F)o2)cc1 | 2.3 |
| Cc1c(C#N)c(NC(=O)CCl)n(Cc2ccccc2)c1C | 11.2 |
| Cc1oc(-c2ccc(Cl)cc2)nc1CN1CCC(C(=O)NCCCN2CCCC(C)C2)CC1 (stereo not given) | 13.2 |
| COc1ccc(COC(=O)c2cc([N+](=O)[O-])ccc2N2CCOCC2)cc1F | 0.023 |
| CCC(=O)OCCNc1cc(Sc2nccn2C)c2nonc2c1[N+](=O)[O-] | 7.16 |
| COC(=O)c1ccc(/C=C(\C#N)C(=O)NC(C)c2ccccc2)cc1 (stereo not given) | 10.7 |
| O=C(c1ccc(S(=O)(=O)Cc2ccccc2Cl)c([N+](=O)[O-])c1)N1CCN(c2ccccn2)CC1 | 9.49 |
| C=CCOc1ccc(/C=C2\SC(=S)N(CCC(=O)O)C2=O)cc1 | 0.337 |
| COc1ccc(C(=O)C(CN2CCOCC2)c2ccccc2)cc1 (stereo not given) | 7.29 |
| O=C(CNc1ccc2ccccc2c1)N/N=C/c1ccc([N+](=O)[O-])o1 | 4.95 |
| CCOc1ccc2nc(NC3=NC(c4ccc(OC)cc4)CC(=O)N3)nc(C)c2c1 (stereo not given) | 9.49 |
| O=C(CCl)N1c2ccccc2SCC1c1ccccc1 (stereo not given) | 4.2 |
| COc1ccc(NC(C)C(=O)N/N=C/c2ccc([N+](=O)[O-])s2)cc1 (stereo not given) | 15.8 |
